Consider 2 compounds from US11173170B2, “Prebiotic composition and its methods of production” (Optibiotix Limited, priority 2014, dated 2021).

Experiment in all cases: Anaerobic cultures, gut bacterial groups by fluorescent in situ hybridisation at 24 hours
Common to all, as to type: cell-based

In one experiment the test system is Bacteroides. As to the method:
(§1) In these experiments, anaerobic cultures were tested to evaluate the in vitro utilisation of a novel Lactobacillus reuteri galactooligosaccharide by monitoring the populations of gut bacterial groups at 24 hours using fluorescent in situ hybridisation, and short-chain fatty acid (SCFA). Fructooligosaccharides (FOS), melibiose and raffinose were used as reference carbohydrates.

The test system of a further experiment is Lactobacilli. On the procedure: as §1
The subject of another experiment is E. coli. As to the method: as §1
Another experiment concerns Total count. As to the method:
as §1

Another experiment relates to Eubacteria. On the procedure: as §1
A further experiment relates to Bifidobacteria. As to the method: as §1
The next experiment deals with Clostridia. Conditions: for Clostridia count, 24: 24 hours, anaerobic culture, inoculum 7.55; for Clostridia, 24 hr % change: 24 hr vs inoculum. On the procedure:
as §1

Turning to `OC[C@H]1O[C@H](OCC2O[C@@H](O)[C@H](O)[C@@H](O)[C@@H]2O)[C@H](O)[C@@H](O)[C@H]1O` (stereo partly shown) [Melibiose, melibiose], in the experiment with Bacteroides (24 hours, anaerobic culture, inoculum 7.98), the “Bacteroides count, 24” value is 7.9. For the same compound, the “Bacteroides, 24 hr % change” value in the experiment on Bacteroides (24 hr vs inoculum) amounted to 99%. Also, the “Lactobacilli count, 24” value in the experiment on Lactobacilli (24 hours, anaerobic culture, inoculum 7.15) is 7.43. The “Lactobacilli, 24 hr % change” value in the experiment with Lactobacilli (24 hr vs inoculum) was 104%. The “E. coli count, 24” value in the experiment with E. coli (24 hours, anaerobic culture, inoculum 8.14) came out at 7.66. In addition, the “E. coli, 24 hr % change” value in the experiment on E. coli (24 hr vs inoculum) stood at 94%. Also, the “Total count, 24” value in the experiment with Total count (24 hours, anaerobic culture, inoculum 8.84) came to 9.14. Besides, the “Total count, 24 hr % change” value in the experiment with Total count (24 hr vs inoculum) is 103%. In addition, the “Eubacteria count, 24” value in the experiment with Eubacteria (24 hours, anaerobic culture, inoculum 8.06) came out at 7.84. The “Eubacteria, 24 hr % change” value in the experiment on Eubacteria (24 hr vs inoculum) turned out to be 97%. The “Bifidobacteria count, 24” value in the experiment on Bifidobacteria (24 hours, anaerobic culture, inoculum 6.85) was found to be 7.33. In addition, the “Bifidobacteria, 24 hr % change” value with Bifidobacteria (24 hr vs inoculum) amounted to 107%. Besides, in the experiment with Clostridia, the “Clostridia count, 24” value was determined as 7.65 and the “Clostridia, 24 hr % change” value came to 101%.
As for `OC[C@H]1O[C@H](OC[C@H]2O[C@H](O[C@]3(CO)O[C@H](CO)[C@@H](O)[C@@H]3O)[C@H](O)[C@@H](O)[C@@H]2O)[C@H](O)[C@@H](O)[C@H]1O` [Raffinose, raffinose], in the experiment on Clostridia, the “Clostridia count, 24” value stood at 7.81 and the “Clostridia, 24 hr % change” value is 103%.
